# Test results taken from patent US8088757B2, “Betulinol derivatives as anti-cancer agents” (priority 2004, dated 2012).
# Where two headings read alike, the source gives them in different places.
# What was measured:
# [1] = 1.34 mg in 31 μL ethanol + 700 μL human serum
# 184B5/HER = assay: In vitro cytotoxicity, Breast (1), 184B5/HER; type: cell-based; conditions: 1 × 10^−4 M
# [2] = Solubility in DMSO diluted with culture medium (GC standard curve); conditions: for State of solution: 0.5 mg/mL BA
# Procedure: The residue was dissolved in chloroform analyzed on GC.
# Ethyl ether was then evaporated. […] Concentration of drug in the above solutions was analyzed by GC and determined from the standard solubility curve.
# LNCaP xenografts = tested on: LNCaP xenografts; parameters: species or system athymic mice; conditions: mouse, in vivo
# Procedure: All the animal studies were performed according to the guidelines and approval of the Institutional Animal Care and Use Committee and Research Animal Resource Center of Weill Medical College of Cornell University, New York. Twelve mice of 13 weeks of age were purchased from The National Cancer Institute (NCI) and were housed in a pathogen-free environment under controlled conditions of light and humidity and with free access to food and water. LNCaP cells were grown in RPMI-1640 with 10% FBS until 80-90% confluent. Cells were scraped into PBS and collected by centrifugation. The LNCAP cell pellets were suspended in Matrigel (Ref) at 2.5×10^7 cells/ml. Mice were injected subcutaneously (“s.c.”) with 200 μl (5×10^6 cells) of the cell suspension at one site on the flank. Visible tumor grew after 7-8 days following implantation and mice were divided into three groups of four mice each.
# Mice received s.c. injection daily for ten days. […] Tumors were measured daily with calipers, and tumor volumes were calculated by the formula: π/6(l×w×h). Animals were also weighed daily and monitored for general health status and vital signs of possible toxicity due to treatment. At the end of the treatment period, the animals were sacrificed and tumors were excised, weighed and prepared for immunohistochemical and histological studies. […]
# [3] = Solubilization in PBS containing human γ-globulin, human albumin and ethanol; conditions: 1 × 10^−3 mol/L
# From the text: Human γ-Globulin and human albumin are two major biocompatible components in human serum.
# LNCaP = assay: MTT cytotoxicity assay, LNCaP prostate cancer cells; type: cell-based, human; conditions: Homo sapiens, read-out: Growth Inhibition %; for inhibition at 25 µM: 2.5 × 10^−5 M; for inhibition at 2.5 µM: 2.5 × 10^−6 M; for inhibition at 0.25 µM: 2.5 × 10^−7 M
# Procedure: The human prostate cancer LNCaP, PC-3, and DU-145 cell lines, as well as human fibroblast cell line, were obtained from the American Type Culture Collection (“ATCC”) and maintained in RPMI-1640, F-12k, and MEM mediums, respectively, supplemented with 10% FBS. Cell lines were maintained at 37° C. under a humidified atmosphere and 5% CO2 for testing of the cytotoxicity of betulinol derivatives. The cytotoxicity assay was performed using MTT assay according to the instructions of ATCC protocol. Cells 1×10^5 in 0.1 ml/well were plated in 96-well culture plates (Costar) and incubated with a different dilution of betulinol derivatives for 24, 48, and 72 hours. Ten μl of 3-[4,5-dimethylthiazol-2-yl]-2,5 diphenyl tetrazolium bromide was added into each well at the end of each incubation period. The reaction product, formazan, was dissolved in the detergent, and the absorbance was read at 540 nm (Ref).
# However, these compounds were not tested on prostate cancer LNCaP cell line by NCI. […] The anti-tumor activity of the compounds was determined at three doses and the total growth inhibition kill effect as pertinent of the control at 24, 48, and 72 hours as presented in Table 11.
structure (smiles),measurement,setting,value
"C=C(C)C1CCC2(C(=O)O)CC[C@]3(C)[C@H](CC[C@@H]4[C@@]5(C)CCC(=O)C(C)(C)[C@@H]5CC[C@]43C)C12 (stereo partly drawn) [Compound 4, Betulonic Acid]",Observation,[1],Clear Solution
same,Percent Killed,184B5/HER,Toxic
same,State of solution,[2]; 3% DMSO in culture medium,Suspension
same,State of solution,[2]; 9% DMSO in culture medium,Suspension
same,State of solution,[2]; 14% DMSO in culture medium,Cloudy
same,State of solution,[2]; 20% DMSO in culture medium,clear solution
same,State of solution,"[2]; 20% DMSO in culture medium, listed as BA",Clear
same,amount of betulonic acid dissolved,"[2]; out of 3 mg, 1% DMSO in culture medium containing 10% FBS, supernatant after centrifugation",0.4 mg
same,general health and vital signs during treatment,LNCaP xenografts,no adverse effects on vital signs
same,Observation,"[3]; ethanol 220 μL, γ-globulin 1.48 mL, albumin 0.49 mL",Cloudy
same,Observation,"[3]; ethanol 280 μL, γ-globulin 0 mL, albumin 2.50 mL",Complete
same,Observation,"[3]; ethanol 280 μL, γ-globulin (27 mg/mL in PBS) 2.50 mL, albumin (42 mg/mL in PBS) 0 mL",Suspension
same,Observation,"[3]; ethanol 308 μL, γ-globulin 0.69 mL, albumin 2.07 mL",Almost Clear
same,Observation,"[3]; ethanol 330 μL, γ-globulin 1.48 mL, albumin 1.48 mL",Little Cloudy
same,Observation,"[3]; ethanol 352 μL, γ-globulin 0.32 mL, albumin 2.85 mL",Clear
same,inhibition at 25 µM,LNCaP; 24 hours,11.4%
same,inhibition at 2.5 µM,LNCaP; 24 hours,14.7%
same,inhibition at 0.25 µM,LNCaP; 24 hours,3.01%
same,inhibition at 25 µM,LNCaP; 48 hours,32.6%
same,inhibition at 2.5 µM,LNCaP; 48 hours,43%
same,inhibition at 0.25 µM,LNCaP; 48 hours,28.3%
